Assay results as given in US4389327A, “Use of selected 1,2-dihydro-1,2,4,5-tetrazines as oxygen-scavenging agents” (priority 1982, dated 1983).

Tests used:
[1] = Deoxygenation of air-saturated buffered distilled water (oxygen meter), time for removal of dissolved oxygen; conditions: pH 9.5, about 25° C.; for T1/2, time required for removal of half of the dissolved oxygen: 2.4×10^-4 moles dissolved O2; for T9/10, time for removal of 90% of the oxygen: measured if under 10 minutes
Description: Weighed amounts of this compound were placed in 100 ml volumetric flasks and diluted with deoxygenated, deionized water. Aliquots of this mixture were injected in the test cell as shown in Example 4.
Again, weighed amounts of this compound were placed in 100 ml volumetric flasks and diluted with deoxygenated, deionized water. Aliquots of this mixture were injected into the test cell as shown in Example 4.
These deoxygenation measurements were run in a one liter round bottom flask equipped with a small septum-covered side arm and a standard taper joint into which was inserted the probe of an oxygen meter (Model 54 made by Yellow Springs Instrument Co. of Yellow Springs, Ohio). For each test, the flask was filled with air-saturated, buffered (with Na2 CO3 /NaHCO3 to pH of 9.5) distilled water. The amount of dissolved O2 content in the water was 2.4×10^-4 moles.
After filling with water, the probe was inserted into the flask and a sample of the compound made in Examples 1, 2, or 3 was injected through the side arm.
The times required for removal of half of the dissolved oxygen were measured (T1/2). Also, the times for removal of 90% of the oxygen (T9/10) were also measured if under 10 minutes.

[2] = Water solubility (remark); type: physicochemical
[3] = amount of compound 2.4 × 10^-4 moles
[4] = amount of compound 7.2 × 10^-4 moles
[5] = amount of compound 12.0 × 10^-4 moles

Compound | T1/2, time required for removal of half of the dissolved oxygen [1, 3] [min] | T1/2, time required for removal of half of the dissolved oxygen [1, 4] [min] | T9/10, time for removal of 90% of the oxygen [1, 4] [min] | T1/2, time required for removal of half of the dissolved oxygen [1, 5] [min] | T9/10, time for removal of 90% of the oxygen [1, 5] [min] | water solubility [2]
CCC1=NN=C(CC)NN1 [3,6-diethyl-1,2-dihydro-1,2,4,5-tetrazine] | 7.5 | 0.9 | 1.5 | 0.6 | 0.9 | 
CC1=NN=C(C)NN1 [3,6-dimethyl-1,2-dihydro-1,2,4,5-tetrazine] |  | 1.5 | 2.2 | 0.12 | 0.30 | 
c1ccc(C2=NNC(c3ccccc3)=NN2)cc1 [3,6-diphenyl-1,2-dihydro-1,2,4,5-tetrazine] | 6 |  |  |  |  | limited water solubility
NN [hydrazine, reference compound] |  |  |  | > 10 |  | 
